Results reported in patent publication US20140187618A1, “COMPOSITIONS, METHODS AND KITS USING FOR INDUCING OR ENHANCING NEUROGENESIS IN CELLS AND TISSUE” (Biocrescentia, LLC, priority 2012, published 2014).

How the values were obtained:
[1] = in vivo; cited from earlier work
[2] = system: macrophages; settings: cultured in vitro model; cited from earlier work
[3] = system: BrdU-positive cells in the subgranule layer of the hippocampus; assay: BrdU quantification of hippocampal stem cell proliferation, dosing every 7 days for 90 days; format: in vivo, BalbC mice; settings: 5 mg/kg every 7 days for 90 days
Description: (§1) Adult six to eight week old male BalbC mice were obtained and kept in cages at room temperature, allowed access to food and water ad libidum, and subjected to 12-hour light/darkness cycles. All procedures were conducted in accordance with the guide for laboratory animal care of the Institute of Biological Sciences/Federal University of Pará (ICB/UFPA) Ethics Committee.
(§2) For BrdU analysis, animal subjects were administered BrdU (50 mg/kg) and were euthanized, and then were perfused with saline and 4% paraformaldehyde (PFA). The brain tissues were dissected and fixed at 4° C. in 4% PFA for 12 hours, then cryoprotected in 20% sucrose. The brain tissues were sliced at 40 micrometers (microns, μm) in a cryostat. […]
To further analyze and quantitate hippocampal stem cell proliferation, effect of physalins on this proliferation, and survival of subjects, groups of subjects were administered a dose of 50 mg/kg BrdU intraperitoneally and 5 mg/kg of PD or AE every 7 days for 90 days. […] The total number of BrdU-positive cells in the subgranule layer of the hippocampus was quantified. The number of BrdU-positive cells was calculated by measuring the area (ten micrometers corresponds to two cell bodies) between the hilus and the hippocampal granule layer in each cut by the method of Bastos et al. 2008 J. Ethnopharmacol. […]

[4] = system: neural stem cells in the dentate gyrus of the hippocampus; assay: BrdU quantification of hippocampal stem cell proliferation in adult mice; parameters: species or system BalbC mice; settings: in vivo and in vitro; summary statement
Description: as §1, §2
To analyze hippocampal stem cell proliferation and effect of physalins on this proliferation, groups of subjects were administered a dose of 50 mg/kg BrdU intraperitoneally and different doses of PD. […] The total number of BrdU-positive cells in the subgranule layer of the hippocampus was quantified. The number of BrdU-positive cells was calculated by measuring the area (ten micrometers corresponds to two cell bodies) between the hilus and the hippocampal granule layer in each cut (Bastos et al. 2008 J. Ethnopharmacol. 118(2): pages 246-251). […]
A qualitative analysis of BrdU-labeled cells in the dentate gyrus of adult mice was also performed using fluorescence microscopy. […]

[5] = system: hippocampus cells (nestin-positive cells); assay: Nestin immunostaining of hippocampus cell culture; format: cell-based, Wistar rats; settings: 10 μM of PD for 24 hours; control EGF and FGF-2 10 ng/ml
Description: The hippocampi of Wistar rats (post natal days one to five) were dissected and mechanically dissociated. Viable cells were plated in four wells of a multi-well culture dish (NUNC Inc.) at a density of 10^6 cells/well containing neurobasal medium without serum or growth factor. After 24 hours, the cells were washed and PD was added to the cells (treated group). Control cells (absent PD) were treated with 10 nanograms per milliliter (ng/ml) of each of EGF and FGF-2 only. Cultures were incubated at 37° C. with 5% CO2 and 95% atmospheric air.
Hippocampus cells were cultured with 10 μM of PD for 24 hours, and the cells were then immunostained for using an anti-nestin antibody. Nestin is an intermediate filament protein expressed in dividing cells during the early stages of development in the central nervous system (CNS), peripheral nervous system (PNS) and in myogenic and other tissues. Without being limited by any particular theory or mechanism of action, it is here envisioned that presence of nestin in hippocampus cells indicates the presence of progenitor stem cells.

[6] = system: Leishmania amazonensis; settings: cited from earlier work
[7] = system: TNF-α, interleukin-6 and interleukin-12; settings: mice treated with lipopolysaccharide; cited from earlier work

Row | SMILES | macrophages activation by lipopolysaccharide and interferon-γ [2] | nitric oxide production [2] | growth of Leishmania amazonensis in macrophages infected with the parasite [6] | also measured
1 | CNCCC(Oc1ccc(C(F)(F)F)cc1)c1ccccc1 (stereo not shown) [fluoxetine] | – | – | – | reduction of stress-induced neurogenesis [1]: reverses or prevents the reduction of stress-induced neurogenesis
2 | C[C@]12C(=O)C=CCC1C(O)CC1C2CC[C@]2(O)C(=O)O[C@@]3(C)[C@H]4C[C@@]5(C)C6C(=O)[C@]1(OC[C@H]5C(=O)O4)O[C@@]632 (stereo partly shown) [Physalin G] | inhibit macrophages activation | substantial reduction in nitric oxide production | – | –
3 | C[C@@]12C[C@H]3OC(=O)[C@@H]1CO[C@]14O[C@]5([C@H]2C1=O)[C@@](O)(CC[C@H]1[C@H]4C[C@@H](O)[C@@]2(O)CC=CC(=O)[C@]12C)C(=O)O[C@@]35C [Physalin D] | – | – | – | actively dividing cells in adult hippocampus tissues [3]: promotes the increase of actively dividing cells; cell survival [3]: improves cell survival for at least three months; neurogenic activity [4]: neurogenic activity in vivo and in vitro; number of nestin-positive cells in the hippocampus cell culture [5]: increased the number of nestin-positive cells
4 | C[C@@]12C[C@H]3OC(=O)[C@@H]1CO[C@]14O[C@]5([C@H]2C1=O)[C@@](O)(CC[C@H]1[C@H]4C[C@H]2O[C@]24CC=CC(=O)[C@]14C)C(=O)O[C@@]35C [Physalin F] | inhibit macrophages activation | substantial reduction in nitric oxide production | inhibit the growth | –
5 | C[C@]12C(=O)C=CCC1=CC[C@@H]1[C@@H]2CC[C@@]2(O)C(=O)O[C@@]3(C)[C@H]4C[C@@]5(C)[C@@H](CO[C@@]16O[C@]23[C@H]5C6=O)C(=O)O4 [Physalin B] | inhibit macrophages activation | substantial reduction in nitric oxide production | inhibit the growth | levels of TNF-α in serum [7]: significantly reduce levels; levels of interleukin-6 in serum [7]: significantly reduce levels; levels of interleukin-12 in serum [7]: significantly reduce levels
